Data: the METLIN SMRT retention time set (Domingo-Almenara et al. 2019)

Experiment: gradient 5% acetonitrile 3 min, to 50% in 2 min, to 85% in 15 min, held 3 min, 100 µL/min
Conditions: column: Zorbax Extend-C18 2.1 x 50 mm; eluents: water / acetonitrile, 0.1% formic acid
Summary of the method: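 Pure standards were run in mixtures of ~100 molecules by HPLC coupled to a quadrupole time-of-flight mass spectrometer. The column was a Zorbax Extend-C18 (2.1 × 50 mm, 1.8 μm) at 100 μL/min, with water and acetonitrile each containing 0.1% formic acid, in positive and negative ionization mode. Dead and dwell volumes were 40 μL and 900 μL. Retention time was taken from computationally picked adduct peaks, each manually inspected, with data collected over 3 months.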

| Compound | RP-LC retention time |
| --- | --- |
| COc1cccc(C(=O)N2CCC(Oc3nc4c(C)ccc(C)c4s3)CC2)c1OC | 1220 s |
| Cc1oncc1CN1CCN(C(=O)c2c(F)cccc2Cl)CC1 | 575 s |
| COCCc1noc([C@@H]2CC(F)(F)CN2C(=O)c2coc(C)n2)n1 | 705 s |
| Cc1nc(-n2cccc2)sc1C(=O)OCc1cc(-c2ccc3c(c2)OCCO3)on1 | 1210 s |
| Cc1noc(-c2cc(=O)n(CC(=O)Nc3cccc(C(C)C)c3)c3ccccc23)n1 | 996 s |
| COc1ccc(Cl)cc1C(=O)N1CCN(c2cc(-n3nc(C)cc3C)nc(C)n2)CC1 | 988 s |
| Cc1ccc2oc(-c3noc(C(=O)NCc4cccs4)n3)c(C)c2c1 | 1150 s |
| CCC1CCCCN1C(=O)c1ccc(-c2nnc3ccc(NC(=O)C4CCC4)cn23)cc1 (stereo not given) | 870 s |
| Cc1ccc(N2C(=O)N(Cc3ccccc3F)S(=O)(=O)c3cccnc32)cc1 | 1050 s |
| CN1CCC(N2CCN(S(=O)(=O)c3ccccc3Cl)CC2)C1=O (stereo not given) | 570 s |
| Cc1nn(CC(=O)N2CCCCC2)c(=O)c2c(-n3cccc3)n(-c3ccc(F)cc3)nc12 | 923 s |
| COc1ccc(S(=O)(=O)Cc2nc(-c3cccc(C(F)(F)F)c3)no2)cc1 | 1060 s |
| Cc1cc(S(=O)(=O)N2CCC(n3c(-c4ccco4)nc4cccnc43)C2)ccc1F (stereo not given) | 827 s |
| Cn1c(=O)c2c(nc(OCCc3ccccc3)n2C)n(C)c1=O | 909 s |
| Cn1nc(C2CCN(S(=O)(=O)c3cc(F)cc(F)c3)CC2)n(C2CCCC2)c1=O | 893 s |
| Cc1nc(N2CCN(c3ccccn3)CC2)nc2c1C(=O)CC(c1cccc(Cl)c1)C2 (stereo not given) | 838 s |
| COc1ccc(N2CCN(S(=O)(=O)c3cc(-c4cc(C(F)(F)F)on4)cs3)CC2)cc1 | 1190 s |
| CCc1nc2cc(N3CCC(C(=O)N4CCN(CC)CC4)CC3)cnc2nc1CC | 590 s |
| COC(=O)c1ccc(NC(=O)c2sc(-c3cn(C)c4ncccc34)nc2C)cc1 | 1080 s |
| Cn1cc(C(=O)Nc2ccc3c(c2)OCO3)c2cccnc21 | 730 s |
| Cc1nc(CC(=O)NCc2ccc(F)c(Cl)c2)sc1C(=O)NC1CC1 | 708 s |

| Compound | RP-LC retention time |
| --- | --- |
| CCN1C(=O)c2cccnc2Sc2cc(NC(=O)c3ccc(C)cc3)ccc21 | 859 s |
| Cc1ccc(Nc2c(-c3ccc(N4CCOCC4)cc3)nc3cnccn23)cc1 | 848 s |
| CCCNC(=O)CC1CCN(C(=O)c2[nH]c(C)c(C(=O)OC(C)C)c2C)CC1 | 724 s |
| CCOC(=O)c1cnn2c(SC)ncnc12 | 776 s |
| COc1ccc(NC(=O)N2CCOc3ccc(Cl)cc32)cc1OC | 870 s |
| Nc1nc(N)nc(-c2cc(Cl)ccc2Cl)n1 | 714 s |
| COC1=CC(=O)O[C@H](/C=C/c2ccc3c(c2)OCO3)C1 | 809 s |
| COc1ccc(NC(=O)C2CCN(S(=O)(=O)c3cn(C)cn3)CC2)c(OC)c1 | 666 s |
| Cc1cc(-c2c(C)sc(C)c2S(=O)(=O)NC2CCC(C)CC2)n[nH]1 (stereo not given) | 1140 s |
| COc1ccccc1-c1nc(-c2ccc3c(c2)nnn3CCN2CCCCC2)no1 | 663 s |
| Cc1ccc(CNC(=O)Cn2c(N(C)Cc3ccccc3)nc(C)cc2=O)cc1 | 778 s |
| CCc1cc(C(=O)Nc2ccccc2)nc2ccnn12 | 960 s |
| Cc1cc(C)n(-c2ccc(C(=O)NCc3ccc(C(C)C)cc3)cn2)n1 | 1100 s |
| Cc1cc(=O)oc2cc(OCC(O)CN3CCN(c4ccccn4)CC3)ccc12 (stereo not given) | 574 s |
| Cc1ccc(/C=C/c2nc(-c3ccc4oc(C)nc4c3)no2)o1 | 1130 s |
| COCCNC(=O)NCC1(c2ccccc2)CCOCC1 | 615 s |
| CCOc1ccc(-n2ccn3cc(-c4ccc(F)cc4)nc3c2=O)cc1 | 860 s |
| Cc1ccn2cc(-c3ccc(NC(=O)c4ccccc4)cc3)nc2n1 | 636 s |
| N#Cc1ccccc1NC(=O)COc1ccc(Cl)cc1Cl | 719 s |
| Fc1ccc(Cl)cc1CN1CC(COc2cccnc2)C2(CCOCC2)C1 (stereo not given) | 566 s |
| O=C(Nc1ccc(Br)cc1F)c1cc(-c2cccnc2)n[nH]1 | 733 s |

| Compound | RP-LC retention time |
| --- | --- |
| COCCN1CCn2cc(S(=O)(=O)Nc3ccc(F)c(F)c3)cc2C1=O | 733 s |
| CCOC(=O)C1CCN(C(=O)c2ccc3ccnc(N4CCN(c5ccc(F)cc5)CC4)c3c2)CC1 | 814 s |
| CCCCCCNC(=O)C1CCCN(c2ncc(-c3ccc(F)cc3)cn2)C1 (stereo not given) | 1160 s |
| Cc1nc(-c2ccc3c(c2)n(CC(=O)NCc2ccc4c(c2)OCO4)c(=O)n3C(C)C)no1 | 619 s |
| CN(C)S(=O)(=O)c1ccc(NC(=O)Cc2ccc(F)cc2)cc1 | 780 s |
| CCc1ccccc1NC(=O)c1cc(C)n2nccc2n1 | 1030 s |
| CCOc1ccccc1-c1noc(CN2C(=O)COc3cc(C)ccc32)n1 | 1050 s |
| CCc1nc2sc(C(C)C)nn2c1S(=O)(=O)N1CCCCC1 | 1020 s |
| CCCN1C(=O)C(CC(=O)NCCN(C)C)Sc2ncccc21 (stereo not given) | 588 s |
| O=C(Nc1ccccc1)C1CCc2nc(N3CCCCC3)ncc2C1 (stereo not given) | 745 s |
| CCOc1nc2ccccc2nc1N1CCCC(C(=O)N2CCN(c3ccc(OC)cc3)CC2)C1 (stereo not given) | 1190 s |
| COc1ccccc1-c1ccc(N2CCN(C(=O)NC3CCCCC3)CC2)nn1 | 601 s |
| Cc1ccc2c(c1)N(S(C)(=O)=O)CCC(C(=O)Nc1ccc(C)c(C)c1)O2 (stereo not given) | 912 s |
| COc1ccc(F)cc1S(=O)(=O)N1CCC(C(=O)Nc2cc(C)on2)CC1 | 745 s |
| Cc1cccc(N2CCN(C(=O)C3c4ccccc4CCN3C(=O)C3CC3)CC2)c1C (stereo not given) | 1080 s |
| Cc1ccc(-c2csc(NC(=O)CCCOc3ccc(Cl)cc3Cl)n2)cc1 | 1290 s |
| O=C(c1ccc(OCC2CCCN(C(=O)c3cccs3)C2)cc1)N1CCOCC1 (stereo not given) | 620 s |
| COc1ccc(-c2cc3c(=O)n(CC(=O)NCC4CCCO4)ncn3n2)cc1 (stereo not given) | 720 s |
| Cc1ccc(Nc2c(-c3ccc(N4CCOCC4)cc3)nc3cccc(C)n23)cc1 | 746 s |

Results, then the molecule that gave them:

| RP-LC retention time | Compound |
| --- | --- |
| 604 s | COc1ccc(Cl)cc1S(=O)(=O)Nc1ccc2nc(N3CCN(C)CC3)cc(C(=O)O)c2c1 |
| 705 s | CCNC(=O)N1CC(Oc2cccc(-c3nc(C)no3)c2)C1 |
| 699 s | O=c1oc2cc(O)cc(O)c2c2ccccc12 |
| 728 s | Cc1ccc(CNC(=O)Cn2cnc3nc4c(cc3c2=O)CCCC4)cc1 |
| 873 s | c1cncc(-c2nc3ccccc3s2)c1 |
| 738 s | Cc1ccc(-c2ncccc2CNS(=O)(=O)c2cc(F)ccc2C)cc1 |
| 776 s | Cc1cc(C)n2nc(CN(C(=O)c3ccco3)c3cccc(Cl)c3)nc2n1 |
| 848 s | O=C(NCc1nc(-c2ccc(NS(=O)(=O)c3cccs3)cc2)no1)c1ccccc1 |
| 887 s | CCn1c(=O)c(C(=O)NC2CC2)nc2cc(C)c(C)cc21 |
| 954 s | CC1(C)CC(=O)c2cn(-c3ccc(F)cc3)c(=O)c(C(=O)N3CCc4ccccc43)c2C1 |
| 706 s | O=C(Cn1c(=O)c2cccn2c2ccc(F)cc21)N1CCN(C(=O)c2ccco2)CC1 |
| 1230 s | CC(C)n1c(=O)c2ccccc2n(Cc2nc(-c3ccc(Br)cc3)no2)c1=O |
| 731 s | O=C(CN1C(=O)NC2(CCCCC2)C1=O)Nc1ccc(F)cc1 |
| 862 s | CC(C)NC(=O)c1ccc(OCC2CCN(C(=O)c3c(F)cccc3F)CC2)cc1 |
| 1060 s | CCOc1ccccc1NC(=O)C1CCCN(S(=O)(=O)c2cc(-c3noc(C)n3)cs2)C1 (stereo not given) |
| 661 s | CCn1c(=O)c(NCc2ccc(F)cc2Cl)nc2ccncc21 |
| 831 s | Cc1noc(-c2cc(=O)n(CC(=O)Nc3ccc4c(c3)OCO4)c3ccccc23)n1 |
| 702 s | Cc1c(CNCc2ccco2)c(C(=O)O)c(C)n1Cc1cccc(Cl)c1 |
| 722 s | COc1ccc(Cc2nnc(NC(=O)c3cnc4ccccc4n3)o2)cc1 |
| 667 s | CC(C)n1nc(CO)c2c1CCN(C(=O)C1COc3ccccc3O1)C2 (stereo not given) |
| 741 s | O=C(CC1CCN(C(=O)NCc2ccccc2)CC1)NCc1cccc(F)c1 |
| 695 s | COc1ccc(C(=O)N2C[C@@H]3C[C@H](NS(=O)(=O)c4ccccc4)[C@H]2C3)cn1 |
| 623 s | COC(=O)c1nnn(-c2ccc(C)cc2)c1C(=O)OC |
| 822 s | CC(C)S(=O)(=O)c1cc2c(cc1NC(=O)c1ccccc1Br)n(C)c(=O)n2C |
| 546 s | O=C(NCc1cccnc1)NC1CC(=O)N(c2ccc(Cl)cc2)C1 (stereo not given) |
| 676 s | O=C(NCC(F)(F)F)C1CCN(C(=O)COc2ccccc2)CC1 |
| 600 s | Cc1cc(C)c2c(N3CCSCC3)nc(C(=O)NCCN3CCCC3)nc2n1 |
| 946 s | CCCCOc1ccc(NC(=O)c2oc3cc(C)ccc3c2C)c2cccnc12 |
| 876 s | O=C(CCC(=O)N1CCCC1c1nc2ccccc2s1)N1CCc2ccccc21 (stereo not given) |
